Data published in publication PMC12467068, “Design, Synthesis, and Computational Insights into PKMYT1 Inhibitors for the Treatment of Breast Cancer” (Biomedicines, 2025).
“Also recorded” adds a separate entry of the source.

Assays:
HCC1569 cells [1] = assay: Cell cycle assay (PI flow cytometry); format: cell-based
Description: HCC1569 cells (1 × 10^5/well) were seeded in 6-well plates and cultured for 24 h at 37 °C under 5% CO2. MY-14 at varying concentrations were added, followed by 5-day incubation. Cells were trypsinized, pelleted by centrifugation, and fixed with 70% ethanol. Subsequent staining was performed with propidium iodide (PI) and RNase A according to the Beyotime kit protocol. After 30 min incubation at 37 °C, samples were analyzed by flow cytometry.

PKMYT1 = target: T1, PKMYT1 (Homo sapiens, UniProt Q99640); assay: PKMYT1 enzyme inhibition assay (LanthaScreen Eu kinase binding method); details: mean of two separate experiments
T1 sequence (Q99640 1-499): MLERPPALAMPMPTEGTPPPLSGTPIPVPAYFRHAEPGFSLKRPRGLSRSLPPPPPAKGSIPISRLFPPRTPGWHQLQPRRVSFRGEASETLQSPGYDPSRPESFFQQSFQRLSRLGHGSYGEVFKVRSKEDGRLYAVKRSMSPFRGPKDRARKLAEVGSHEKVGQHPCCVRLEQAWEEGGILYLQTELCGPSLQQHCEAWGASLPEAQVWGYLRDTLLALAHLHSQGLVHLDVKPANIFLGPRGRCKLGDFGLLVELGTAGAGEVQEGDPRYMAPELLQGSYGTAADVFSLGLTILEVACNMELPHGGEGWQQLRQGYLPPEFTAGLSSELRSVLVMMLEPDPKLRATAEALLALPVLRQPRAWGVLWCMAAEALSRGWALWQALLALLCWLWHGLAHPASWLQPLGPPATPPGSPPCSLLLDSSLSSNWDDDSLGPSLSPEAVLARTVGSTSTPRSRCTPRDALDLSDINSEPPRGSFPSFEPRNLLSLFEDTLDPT
Description: The PKMYT1 kinase assay was conducted with the LanthaScreen™ Eu kinase binding method, as provided by Thermo Fisher Scientific (Waltham, MA, USA). Initially, compounds were prepared at a concentration of 4 mM in DMSO and subsequently diluted to various concentrations in 1X buffer. […] The plate was then incubated in the dark at 25 °C for 1 h, and fluorescence signals were recorded at 665 nm and 615 nm.

A549 cells = assay: Anti-proliferative activity in low-expressing CCNE1 cells A549; format: cell-based
OVCAR3 cells [2] = assay: Cell cloning (colony formation) assay; format: cell-based; details: OVCAR3, 14 days of incubation, varying concentrations
Description: OVCAR3 cells (4 × 10^3/well) were seeded into 6-well plates and incubated for 24 h at 37 °C in a 5% CO2 atmosphere. Compound MY-14 was then added at varying concentrations, followed by a 14-day incubation period. Subsequently, cells were fixed with a 4% paraformaldehyde solution and stained using crystal violet solution, after which colonies were quantified using ImageJ 1.54 software.

BEAS-2B cells = assay: Anti-proliferative activity in normal lung epithelial cells BEAS-2B; format: cell-based
OVCAR3 cells [3] = assay: Cell proliferation assay (CCK-8), OVCAR3; format: cell-based; details: CCNE1-amplified ovarian cancer cells, 5-day incubation, mean ± SD, n = 3
Description: (§1) HCC1569 and OVCAR3 cells (2 × 10^3/well) were seeded in 96-well plates and cultured for 24 h at 37 °C, 5% CO2. Compounds at varying concentrations were added, followed by 5-day incubation. Cell viability was assessed using Cell Counting Kit-8 (CCK-8) with absorbance measurement at 450 nm. HCC1569 (BNCC341698) was purchased from BNCC and OVCAR3 (CL-0178) was purchased from Procell.

HCC1569 cells [4] = assay: Cell proliferation assay (CCK-8), HCC1569; format: cell-based; details: CCNE1-amplified breast cancer cells, 5-day incubation, mean ± SD, n = 3
Description: as §1

HCC1569 cells [5] = assay: Cell apoptosis assay (Annexin V-FITC/PI flow cytometry); format: cell-based; set-up: Q1 / Q2 / Q3 / Q4: unit not given here
Description: HCC1569 cells (1 × 10^5/well) were seeded in 6-well plates and cultured for 24 h at 37 °C, 5% CO2. MY-14 at varying concentrations were added, followed by 5-day incubation. Cells were trypsinized and pelleted by centrifugation. Subsequent analysis was performed per the Medilunbio kit protocol: staining was conducted with propidium iodide (PI) and Annexin V-FITC. After 15 min incubation, samples were analyzed by flow cytometry.

With CCOP(=O)(OCC)c1ccc(Nc2ncc(C(=O)Nc3c(C)ccc(O)c3C)c(N)n2)cc1 [MY-14] the “cell-cycle arrest (in words)” value (HCC1569 cells [1]) was “arrested cell-cycle progression at the S-phase; also recorded: G1/S phase cell-cycle arrest”, the “distribution of G2/M-phase cells (in words)” value (HCC1569 cells [1]) was “no significant impact” and the “proportion of G1-phase cells (in words)” value (HCC1569 cells [1]) was “reducing the proportion of G1-phase cells”. For the same molecule, the “proportion of S-phase cells (in words)” value (HCC1569 cells [1]) was “concentration-dependent increase in the proportion of S-phase cells”, the IC50 (PKMYT1) was 2.6 nM and the “cytotoxicity (in words)” value (A549 cells; A549, CCNE1-low) was “did not exhibit cytotoxicity; also recorded: reduced cytotoxicity”. For the same molecule, the IC50 (A549 cells; Homo sapiens, A549, lung cancer cells, low CCNE1 expression, mean ± SD, n = 3) was > 8 µM, the “colony formation (in words)” value (OVCAR3 cells [2]) was “inhibited colony formation in a dose-dependent manner” and the “cytotoxicity (in words)” value (BEAS-2B cells; BEAS-2B lung epithelial cells) was “did not exhibit cytotoxicity; also recorded: reduced cytotoxicity”. For the same molecule, the IC50 (BEAS-2B cells; Homo sapiens, BEAS-2B, lung epithelial cells, mean ± SD, n = 3) was > 8 µM, the IC50 (OVCAR3 cells [3]) was 800 ± 70 nM and the IC50 (OVCAR3 cells [3]; Homo sapiens, OVCAR-3, 120 h) was 820 nM. The IC50 (HCC1569 cells [4]) was 1060 ± 180 nM, the IC50 (HCC1569 cells [4]; Homo sapiens, HCC1569, 120 h) was 1020 nM and the “apoptosis induction (in words)” value (HCC1569 cells [5]; HCC1569) was “induced apoptosis in a concentration-dependent manner; also recorded: induced apoptosis-mediated cell death”. It also gave a Q1 (HCC1569 cells [5]; HCC1569, 0.5 μM) of 4.66, a Q2 (HCC1569 cells [5]; HCC1569, 0.5 μM) of 0.51 and a Q3 (HCC1569 cells [5]; HCC1569, 0.5 μM) of 18.6. It also gave a Q4 (HCC1569 cells [5]; HCC1569, 0.5 μM) of 76.2, a Q1 (HCC1569 cells [5]; HCC1569, 1.0 μM) of 3.91 and a Q2 (HCC1569 cells [5]; HCC1569, 1.0 μM) of 0.20. For the same molecule, the Q3 (HCC1569 cells [5]; HCC1569, 1.0 μM) was 21.2, the Q4 (HCC1569 cells [5]; HCC1569, 1.0 μM) was 74.7 and the Q1 (HCC1569 cells [5]; HCC1569, 2.0 μM) was 4.24. For the same molecule, the Q2 (HCC1569 cells [5]; HCC1569, 2.0 μM) was 1.07, the Q3 (HCC1569 cells [5]; HCC1569, 2.0 μM) was 40.4 and the Q4 (HCC1569 cells [5]; HCC1569, 2.0 μM) was 54.3. It also gave a Q1 (HCC1569 cells [5]; HCC1569, 4.0 μM) of 4.11, a Q2 (HCC1569 cells [5]; HCC1569, 4.0 μM) of 1.14 and a Q3 (HCC1569 cells [5]; HCC1569, 4.0 μM) of 46.3. It also gave a Q4 (HCC1569 cells [5]; HCC1569, 4.0 μM) of 48.5 and a maximal apoptotic rate (HCC1569 cells [5]; HCC1569, 5-day incubation) of 47.44%.
